Paper PMC10412597, “Small molecule branched-chain ketoacid dehydrogenase kinase (BDK) inhibitors with opposing effects on BDK protein levels” (Nature Communications, 2023)
Where two headings read alike, the source gives them in different places.

Assays:
[1] = target: T1, BDK (branched-chain ketoacid dehydrogenase kinase, BCKDK; hBDK) (Homo sapiens, UniProt O14874); assay: FRET assay of BDK phosphorylation of E2 RBD-E1 peptide substrate; type: biochemical; conditions: read-out: BDK in vitro IC50 (nM)^a
T1 construct: purified recombinant kinase; construct details only in Supplementary Information; human stated for the crystal structures
Source text: FRET assay of BDK phosphorylation of E2 RBD-E1 peptide substrate on BDK (branched-chain ketoacid dehydrogenase kinase, BCKDK; hBDK)

Serotonin 5-HT2a = target: T2, Serotonin 5-HT2a (Homo sapiens, UniProt P28223); design: Cerep Bioprint off-target panel, functional receptor agonism or antagonism; conditions: agonist
T2 construct: gene HTR2A
Experimental: To discover a potent and selective BDK inhibitor, a subset of the Pfizer compound collection was screened. […] Off target activity was assessed in both CEREP and kinase panels (Supplementary Tables 2, 3).

[2] = target: T1, BDK (branched-chain ketoacid dehydrogenase kinase, BCKDK; hBDK); assay: SPR; type: binding
Source text: SPR on BDK (branched-chain ketoacid dehydrogenase kinase, BCKDK; hBDK)

[3] = target: T3, BDK-BCKDHE2 (biotinylated BDK with full length non-lipoylated E2 core subunit) (Homo sapiens, UniProt O14874); assay: AlphaLISA BDK-E2 protein-protein interaction, signal increase; type: binding
T3 construct: gene BCKDK; E2 with N-terminal FLAG and TEV site, DBT residues 62-482, bacterial expression, non-lipoylated; with Lipoamide acyltransferase component of branched-chain alpha-keto acid dehydrogenase complex, mitochondrial

[4] = target: T1, BDK (branched-chain ketoacid dehydrogenase kinase, BCKDK; hBDK); assay: biochemical; design: TR-FRET BDK kinase assay, phosphorylation of LBD-E1 substrate, 15 uM ATP; conditions: read-out: BDK in vitro IC50
Experimental: 705 covered with a lid and allowed to incubate at room temperature for 90 min. Final concentration of 706 LBD-E1 substrate was 50 nM and final concentration of ATP was 15 µM. Following incubation, 707 the enzyme reactions were stopped by adding 5 µL of 4X stop/primary antibody solution 708 containing 100 mM (final) EDTA, 2 nM (final) anti-His Eu antibody, and 1:1000 anti-pE1 antibody 709 in assay buffer. The plates were covered and incubated at room temperature for 30 min. Finally, 710 5 µL of 4X detection reagent consisting of 20 nM (final) anti-rabbit Ulight antibody and 1X LANCE 711 detection buffer in dH2O was then added. The plates were centrifuged for 30 seconds at 113 x g. 712 After a 60 min incubation, the plates were read on an EnVision® MultiReader in TR-FRET mode 713 (excitation 320 nm: emissions 665 nm). The raw data from the EnVision® MultiReader was 714 expressed as a ratio and was analyzed using proprietary software (Activity Base). […] IC50 values were determined from the percent effect data using a 4-parameter logistic dose 718 response model (Activity Base). To discover a potent and selective BDK inhibitor, a subset of the Pfizer compound collection was screened. […] Off target activity was assessed in both CEREP and kinase panels (Supplementary Tables 2, 3).

[5] = target: T1, BDK (branched-chain ketoacid dehydrogenase kinase, BCKDK; hBDK); assay: biochemical; design: SPR binding to captured BDK, 1:1 binding model; conditions: read-out: BDK SPR KD
Experimental: 828 Tween-20 and 2% DMSO. The same buffer was used as the running buffer during the 829 experiments. Compound samples were injected at a flow rate of 30 µL/min for 120 seconds of 830 association time followed by at least 300 seconds of dissociation period. The compounds were 831 tested in a concentration series consisting of at least 6 samples made with 2-fold dilution. The 832 highest concentration was selected based on compound potency in the biochemical assay or 833 binding affinity observed in a previous experiment. Multiple blank injections were run before and 834 after each compound series to allow double reference subtraction during data processing and 835 analysis. Radicicol was tested in every experiment as a positive control to assess activity of the 836 captured protein on the surface. A DMSO curve was run during each experiment to properly 837 correct for excluded volume. The data were processed and analyzed using Bruker Analyzer, 838 Scrubber and Biaeval softwares to calculate binding affinities and kinetics by fitting the data to 839 1:1 binding model. To discover a potent and selective BDK inhibitor, a subset of the Pfizer compound collection was screened. […] Off target activity was assessed in both CEREP and kinase panels (Supplementary Tables 2, 3).

[6] = target: T3, BDK-BCKDHE2 (biotinylated BDK with full length non-lipoylated E2 core subunit); assay: AlphaLISA BDK-E2 protein-protein interaction, signal decrease; type: binding
[7] = target: T4, BDK in human skeletal myocytes (Homo sapiens, UniProt O14874); assay: AlphaLISA SureFire Ultra BCKDH phosphorylation in human skeletal myocytes; type: cell-based; conditions: intact cells; read-out: Human skeletal myocyte IC50 (nM)^a
T4 construct: gene BCKDK; endogenous full kinase in human skeletal myocytes; read-out BCKDH E1alpha phosphorylation
Source text: AlphaLISA SureFire Ultra BCKDH phosphorylation in human skeletal myocytes on BDK in human skeletal myocytes

T2 sequence (P28223 whole entry): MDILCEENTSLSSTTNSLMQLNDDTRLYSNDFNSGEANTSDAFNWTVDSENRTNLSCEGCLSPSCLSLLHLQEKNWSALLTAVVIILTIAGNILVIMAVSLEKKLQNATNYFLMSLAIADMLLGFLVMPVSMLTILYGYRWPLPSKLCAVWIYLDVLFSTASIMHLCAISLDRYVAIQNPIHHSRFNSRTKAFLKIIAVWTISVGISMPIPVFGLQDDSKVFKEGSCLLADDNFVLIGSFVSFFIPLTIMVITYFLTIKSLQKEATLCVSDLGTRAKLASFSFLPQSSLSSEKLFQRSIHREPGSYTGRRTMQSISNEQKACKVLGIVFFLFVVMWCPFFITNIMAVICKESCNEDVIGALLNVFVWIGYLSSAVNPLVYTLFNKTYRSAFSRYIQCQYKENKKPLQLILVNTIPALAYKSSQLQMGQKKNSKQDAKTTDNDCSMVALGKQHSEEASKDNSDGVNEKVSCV

IC50 [4]	Kd [5]	Compound	IC50 [1]	Kd [2]	also measured
		CCC1(COc2ccc(-c3csc(-c4ccccc4C(=O)O)n3)cn2)CC1 [PF-07247685]	0.86 ± 0.15 nM	0.68 ± 0.38 nM	% (agonism) PF-07247685 (Serotonin 5-HT2a; 10 µM): 3%; EC50 [3]: 2.2 ± 0.35 nM
1200 ± 490 nM	5800 ± 4400 nM	Cc1ccc(-c2nc(-c3ccccc3C(=O)O)cs2)cc1 [S3]			
600 ± 51 nM	75 ± 2 nM	O=C(O)c1sc2cc(Cl)sc2c1Cl [S1]			
		O=C(O)c1sc2cc(F)sc2c1Cl [PF-07208254]		84 ± 8.7 nM	IC50 [6]: 56 ± 26 nM; % (agonism) PF-07208254 (Serotonin 5-HT2a; 100 µM): -5%
		CC(C)COc1ccc(-c2nc(-c3ccccc3C(=O)O)cs2)cn1 [PF-07238025]	4.5 ± 0.58 nM	4.4 ± 1.1 nM	EC50 ([3]; stabilises BDK-E2 interaction, pH […] KCl, […] MgCl2, […] DTT): 19 ± 1.7 nM; IC50 [7]: 59 ± 10 nM
210 ± 10 nM	270 ± 31 nM	O=C(O)c1cc2sc(F)cc2s1 [S2]			
